Reference: patent US9724352B2, “Pyrrolo[2,1-F[1,2,4]triazine compounds, preparation methods and applications thereof” (Shanghai Institute of Materia Medica, Chinese Academy of …, priority 2012, dated 2017)

Experiments:
PI3Kα = PI3Kα (Homo sapiens (Human), UniProt P42336); test: Inhibition on PI3K kinase activity (Kinase-Glo Plus luminescent assay); type: biochemical; settings: 2 μM ATP, 1 hour at room temperature
Experimental: The activity of purified kinase was detected with Kinase-Glo® Plus kinase luminescent assay by measuring the amount of the remaining […] in the solution after the kinase reaction was completed. […] After reaction was performed for 1 hour at room temperature, 10 μL of Kinase Glo-Plus mixture was added and incubated for 1 hour to quench the reaction.

[1] = system: human rhabdomyosarcoma Rh30 cells; test: Proliferation of Rh30 cells (sulforhodamine B); type: cell-based; settings: Homo sapiens, Rh30, 72 h; read-out: IC50 against proliferation of Rh30 cells
Procedure, shortened: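 Rh30 cells (3000/well) were treated after adherence with compound at 10, 3, 1, 0.3 or 0.1 μM for 72 h. TCA-fixed cells were stained with sulforhodamine B, dye solubilised in Tris buffer and OD read at 560 nm.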

[2] = system: human esophagus cancer KYSE 410 xenograft; test: Growth of KYSE 410 xenograft subcutaneously transplanted in nude mouse; type: in vivo; settings: for Relative tumor proliferation rate T/C: 50 mg/kg p.o. once every day
Experimental: Well-developed tumors in nude mice were cut into 1.5 mm3 fragments and transplanted s.c. into the right flank of nude mice under sterile conditions. The diameters of subcutaneously transplanted tumours in nude mice were measured with a vernier calipe. When the tumour reached a volume 170 mm3, the mice were randomly assigned into two treatment groups: CYH33 50 mg/kg group or BYL-719 50 mg/kg group. Control groups were given the same amount of normal saline, and treatment groups received tested compounds (p.o). Compounds were administered orally once every day for 3 weeks. Evaluation index of antitumor activity was relative tumor proliferation rate T/C (%), the calculation formula of which was as follows: T/C (%)=(TRTV/CRTV)×100%, TRTV:RTV of treatment group; CRTV:RTV of negative control group.

[3] = system: PI3K signaling in human rhabdomyosarcoma Rh30 cells; test: PI3K signaling after IGF-1 stimulation (Western blot), Rh30; type: cell-based; settings: compound 1 h, IGF-1 10 minutes
Experimental: (§1) Rh30 and U87MG cells were seeded in 12-well plates at 2×10^5 cells/well. On the next day, cells were incubated in fresh serum-free culture media subjected to starvation for 24 hours. Cells were then treated with different concentrations of compound I-33 for 1 h. After stimulated with IGF-1 for 10 minutes, the lysed cells were collected, and 4×SDS loading buffer [200 mM Tris.Cl (pH 6.8), 400 mM DTT, 8% SDS (sodium dodecyl sulfate), 0.4% bromophenol blue, 40% glycerol] was added. The cell lysates were boiled for 10 minutes. Aliquot was loaded on polyacrylamide gel and electrophoresis was performed in Tris-glycine electrophoresis buffer (25 mM Tris, 250 mM glycine, 0.1% SDS) at 80-100 V for 2-2.5 hours. The proteins were transformed from gel to nitrocellulose filter membrane by using semidry method. The filter membrane was blocked with blocking solution containing 5% skim milk powder (5% skim milk powder, 20 mM Tris-HCl (pH 7.2-7.4), 150 mM NaCl, 0.1% (v/v) Tween20) in a shaker at room temperature for 2 hours. Then specific primary antibody was added and hybridized at 4° C. overnight. The membrane was washed by washing buffer [20 mM Tris-HCl (pH 7.2-7.4), 150 mM NaCl, 0.1% (v/v) Tween20] for three times at room temperature, 15 minutes each time. […]

[4] = system: PI3K signaling in human glioma U87MG cells; test: PI3K signaling after IGF-1 stimulation (Western blot), U87MG; type: cell-based; settings: compound 1 h, IGF-1 10 minutes
Experimental: as §1

KYSE450 = test: Proliferation of human esophagus cancer cells; type: cell-based
Description: (§2) Compounds BYL719 (shown below), CYH33 (compound I-33) and I-27 were selected to test their activity on the proliferation of 11 species of human esophagus cancer cells.
(§3) The results reported in FIG. 3 were the average GI50 value and SD value of three experiments. The results were arranged according to the GI50 value of CYH33.

KYSE2 = test: Proliferation of human esophagus cancer cells; type: cell-based
Description: as §2, §3

Detroit 562 = test: Proliferation of human esophagus cancer cells; type: cell-based
Description: as §2, §3

KYSE150 = test: Proliferation of human esophagus cancer cells; type: cell-based
Description: as §2, §3

[5] = system: rhabdomyosarcoma cells S-RH30; test: Proliferation of human cancer cell panel; type: cell-based; settings: read-out: inhibitory activity on proliferation
Description: (§4) I-30 and I-33 were selected to test their activity on the proliferation of human cancer cells originated from different tissue types.

[6] = system: gastric cancer cells G-MKN-45; test: Proliferation of human cancer cell panel; type: cell-based; settings: read-out: inhibitory activity on proliferation
Description: as §4

LG-NCI-H23 = test: Proliferation of human cancer cell panel; type: cell-based; settings: read-out: inhibitory activity on proliferation
Description: as §4

B-BT474 = test: Proliferation of human cancer cell panel; type: cell-based; settings: read-out: inhibitory activity on proliferation
Description: as §4

P-PC-3 = test: Proliferation of human cancer cell panel; type: cell-based; settings: read-out: inhibitory activity on proliferation
Description: as §4

[7] = system: hepatoma cells L-BEL-7402; test: Proliferation of human cancer cell panel; type: cell-based; settings: read-out: inhibitory activity on proliferation
Description: as §4

LG-NCI-H460 = test: Proliferation of human cancer cell panel; type: cell-based; settings: read-out: inhibitory activity on proliferation
Description: as §4

[8] = system: colon cancer cells C-HCT-116; test: Proliferation of human cancer cell panel; type: cell-based; settings: read-out: inhibitory activity on proliferation
Description: as §4

[9] = system: colorectal cancer cells C-LOVO; test: Proliferation of human cancer cell panel; type: cell-based; settings: read-out: inhibitory activity on proliferation
Description: as §4

[10] = system: endometrial cancer cells E-RL95-2; test: Proliferation of human cancer cell panel; type: cell-based; settings: read-out: inhibitory activity on proliferation
Description: as §4

O-SKOV-3 = test: Proliferation of human cancer cell panel; type: cell-based; settings: read-out: inhibitory activity on proliferation
Description: as §4

Sequence of PI3Kα (P42336 whole entry): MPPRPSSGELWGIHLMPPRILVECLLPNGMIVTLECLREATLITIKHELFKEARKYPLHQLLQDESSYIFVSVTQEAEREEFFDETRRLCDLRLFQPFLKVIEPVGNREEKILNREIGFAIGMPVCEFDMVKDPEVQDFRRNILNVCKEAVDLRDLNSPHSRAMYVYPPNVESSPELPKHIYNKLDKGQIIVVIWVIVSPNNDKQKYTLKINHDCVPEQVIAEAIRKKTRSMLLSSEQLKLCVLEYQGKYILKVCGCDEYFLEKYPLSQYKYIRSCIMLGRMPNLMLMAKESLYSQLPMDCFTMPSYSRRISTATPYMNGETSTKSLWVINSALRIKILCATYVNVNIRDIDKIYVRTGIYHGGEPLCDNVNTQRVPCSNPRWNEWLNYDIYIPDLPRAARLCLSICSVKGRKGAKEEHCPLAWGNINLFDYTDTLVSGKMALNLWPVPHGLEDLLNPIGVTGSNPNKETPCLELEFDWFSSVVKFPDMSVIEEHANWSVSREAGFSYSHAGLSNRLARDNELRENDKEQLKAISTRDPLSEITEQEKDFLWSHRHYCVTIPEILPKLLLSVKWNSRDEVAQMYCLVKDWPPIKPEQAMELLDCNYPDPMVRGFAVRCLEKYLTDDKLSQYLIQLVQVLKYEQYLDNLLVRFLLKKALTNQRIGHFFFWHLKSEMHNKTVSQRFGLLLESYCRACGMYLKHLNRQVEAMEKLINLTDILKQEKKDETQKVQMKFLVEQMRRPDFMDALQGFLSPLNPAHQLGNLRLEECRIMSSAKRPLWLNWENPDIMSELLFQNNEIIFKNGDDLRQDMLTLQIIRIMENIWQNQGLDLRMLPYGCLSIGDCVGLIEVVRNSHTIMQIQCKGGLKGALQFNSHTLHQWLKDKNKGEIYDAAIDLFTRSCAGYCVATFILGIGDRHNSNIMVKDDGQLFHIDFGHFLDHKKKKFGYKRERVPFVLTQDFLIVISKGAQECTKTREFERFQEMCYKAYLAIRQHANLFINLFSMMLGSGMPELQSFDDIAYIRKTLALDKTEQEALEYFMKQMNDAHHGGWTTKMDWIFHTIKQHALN
Sequence of PI3Kα (P27986 whole entry partner): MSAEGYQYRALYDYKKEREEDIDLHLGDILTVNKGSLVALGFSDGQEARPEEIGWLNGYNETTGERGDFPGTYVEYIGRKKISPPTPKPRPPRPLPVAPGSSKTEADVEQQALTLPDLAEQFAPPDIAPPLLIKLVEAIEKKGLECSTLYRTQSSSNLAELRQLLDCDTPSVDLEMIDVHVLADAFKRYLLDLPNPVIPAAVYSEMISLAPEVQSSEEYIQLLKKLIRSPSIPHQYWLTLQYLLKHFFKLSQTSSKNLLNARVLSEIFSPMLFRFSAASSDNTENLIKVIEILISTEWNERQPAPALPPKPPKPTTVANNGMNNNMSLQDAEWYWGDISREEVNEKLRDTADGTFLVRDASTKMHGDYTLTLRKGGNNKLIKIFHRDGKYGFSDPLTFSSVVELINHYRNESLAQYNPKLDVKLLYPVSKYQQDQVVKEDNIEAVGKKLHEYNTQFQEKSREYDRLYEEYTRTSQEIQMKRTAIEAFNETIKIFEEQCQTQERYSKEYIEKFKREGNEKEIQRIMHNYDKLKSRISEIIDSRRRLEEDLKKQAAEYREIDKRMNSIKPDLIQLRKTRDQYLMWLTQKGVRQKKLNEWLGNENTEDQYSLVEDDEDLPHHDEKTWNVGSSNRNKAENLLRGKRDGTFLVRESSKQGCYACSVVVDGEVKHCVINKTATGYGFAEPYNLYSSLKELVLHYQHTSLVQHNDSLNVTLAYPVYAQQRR

IC50 (PI3Kα): 2.84 nM
IC50 [1]: 2520 nM
GI50 (KYSE450; KYSE-450, KYSE450, 1st experiment): 1380 nM
GI50 (KYSE450; KYSE-450, KYSE450, 2nd experiment): 803 nM
GI50 (KYSE450; KYSE-450, KYSE450, 3rd experiment): 938 nM
GI50 (KYSE450; KYSE-450, KYSE450, mean of three experiments): 1040 nM
GI50 (KYSE2; KYSE2, 1st experiment): 24 nM
GI50 (KYSE2; KYSE2, 2nd experiment): 28 nM
GI50 (KYSE2; KYSE2, 3rd experiment): 97 nM
GI50 (KYSE2; KYSE2, mean of three experiments): 50 nM
GI50 (Detroit 562; Detroit 562, Detroit 562, 1st experiment): 718 nM
GI50 (Detroit 562; Detroit 562, Detroit 562, 2nd experiment): 707 nM
GI50 (Detroit 562; Detroit 562, Detroit 562, 3rd experiment): 769 nM
GI50 (Detroit 562; Detroit 562, Detroit 562, mean of three experiments): 731 nM
GI50 (KYSE150; KYSE-150, KYSE150, 1st experiment): 40 nM
GI50 (KYSE150; KYSE-150, KYSE150, 2nd experiment): 62 nM
GI50 (KYSE150; KYSE-150, KYSE150, 3rd experiment): 38 nM
GI50 (KYSE150; KYSE-150, KYSE150, mean of three experiments): 47 nM
IC50 [5]: 486 nM
IC50 [6]: 3400 nM
IC50 (LG-NCI-H23): 730 nM
IC50 (B-BT474): 62 nM
IC50 (P-PC-3): 1580 nM
IC50 [7]: 4900 nM
IC50 (LG-NCI-H460): 1520 nM
IC50 [8]: 10000 nM
IC50 [9]: 1330 nM
IC50 [10]: 5300 nM
IC50 (O-SKOV-3): 277 nM
SMILES: COC(=O)Nc1cc(C(F)(F)F)c(-c2nc(N3CCOCC3)c3cc(CN4CCN(S(C)(=O)=O)CC4)cn3n2)cn1 [Compound I-33, Methyl (5-(6-((4-(methylsulfonyl)piperazin-1-yl)methyl)-4-morpholinopyrrolo[2,1-f][1,2,4]triazin-2-yl)-4-(trifluoromethyl)pyridin-2-yl)carbamate]
growth of KYSE 410 xenograft (in words) ([2]; 50 mg/kg p.o. every day for 3 weeks): significantly slowed down
Relative tumor proliferation rate T/C ([2]; d0): 100.00%
Relative tumor proliferation rate T/C ([2]; d3): 65.56%
Relative tumor proliferation rate T/C ([2]; d7): 30.11%
Relative tumor proliferation rate T/C ([2]; d10): 25.23%
Relative tumor proliferation rate T/C ([2]; d14): 13.79%
Relative tumor proliferation rate T/C ([2]; d17): 10.51%
Relative tumor proliferation rate T/C ([2]; d21): 9.13%
transduction of PI3K signaling [3]: significantly inhibited
transduction of PI3K signaling [4]: significantly inhibited
